Assay type in all cases: biochemical
Test [1] has as its target Oryza sativa EPSPS with 868-H6 mutations, SEQ ID NO:11 (Oryza sativa, UniProt Q93VK6, A482G/A67R/A69W/D368S/D468G/E457G/G168A/I274L/K149R/L164C/T345A/T427S/T507Q/V137Q/V504R). In words: EPSPS substrate saturation kinetics, rice H6. Here is the method:
EPSPS activity was determined by quantifying the phosphate generated from the EPSPS reaction. Release of inorganic phosphate was coupled to reaction with 2-amino-6-mercapto-7-methylpurine ribonucleoside, catalyzed by purine-nucleoside phosphorylase (M R Webb, Proc. Natl. Acad. Sci. 89:4884-4887, 1992). The absorbance change that occurs was monitored at 360 nm, where the extinction is 11,200 M^−1 cm^−1, with a Spectramax plate reader (Molecular Devices). To determine kinetic parameters, the varied substrate was present at seven concentrations (the eighth being the blank, containing no substrate) ranging from 4 to 400 uM and the unvaried substrate present at saturation. […] Reactions were monitored with a Spectramax plate reader. […] KI was then calculated from the following form of the Michaelis-Menten equation for competitive inhibition: KI=KM[I]/(KM app−KM) KM approximates the dissociation constant of the enzyme-substrate complex while kcat is the rate of conversion of substrate to product when the substrate concentration is saturating. kcat/KM is a widely accepted parameter for catalytic efficiency when substrate concentration is low (˜KM). […] The parameter kcat/KM×KI is used to quantify both catalytic efficiency and insensitivity and thus the overall fitness of the enzyme. […]

Test [2] has as its target T1, Zea mays EPSPS variant Zm-P107L (Zea mays, UniProt O24566, P106L).
T1 construct: native maize plus P107L; E. coli BL21(DE3), Ni-NTA purified
As to the kind of experiment: Rapid two-rate method for (kcat/KM)*KI, Zm-P107L. The source says: There are several practical considerations for accurately estimating (kcat/KM)*KI with the rapid method. […] 2) The inhibitor concentration must be adjusted so as to obtain a degree of inhibition that minimally amplifies the error in the term v0-vi in Equation 3. If inhibition is too little, v0-vi will be small, and the error in the multiplier vi×v0/(v0-vi) will be large. […] 3) Substrate concentration should be set at the approximate KM of the parental variant(s), subject to the sensitivity of the assay. High substrate concentration obscures sensitivity to the inhibitor and reduces stringency for capturing improvements in KM. Depending on the necessity for speed, there exists opportunity for customizing enzyme and inhibitor concentrations. […] The rapid method was repeated for those and obtained data that correlated better with data obtained by substrate saturation analysis. For screening purposes however, that correlation step is not necessary. Conditions can be set so that variants with a pre-determined minimal fitness level are accurately quantified.
In Table 15, parameters above the heavy line for the rapid method were obtained under standard conditions. For variants shown below the heavy line, the rapid analysis was repeated with enzyme or glyphosate concentrations adjusted as needed to generate sufficient signal within the limits for linear initial rates.

The target in test [3] is T2, Zea mays EPSPS variant Zm-H6 (868-H6) with K246G (H6-K246G) (Zea mays, UniProt O24566, A1R/A3W/A415G/A71Q/D401G/E301S/E390G/G101A/I207L/K245G/K83R/L97C/T278A/T360S/T440Q/V437R).
T2 construct: 868-H6 plus K246G; E. coli BL21(DE3), Ni-NTA purified
T2 sequence (O24566 with tags, fused parts or gaps A1R/A3W/A71Q/K83R/L97C/G101A/I207L/K245G/T278A/E301S/T360S/E390G/D401G/A415G/V437R/T440Q): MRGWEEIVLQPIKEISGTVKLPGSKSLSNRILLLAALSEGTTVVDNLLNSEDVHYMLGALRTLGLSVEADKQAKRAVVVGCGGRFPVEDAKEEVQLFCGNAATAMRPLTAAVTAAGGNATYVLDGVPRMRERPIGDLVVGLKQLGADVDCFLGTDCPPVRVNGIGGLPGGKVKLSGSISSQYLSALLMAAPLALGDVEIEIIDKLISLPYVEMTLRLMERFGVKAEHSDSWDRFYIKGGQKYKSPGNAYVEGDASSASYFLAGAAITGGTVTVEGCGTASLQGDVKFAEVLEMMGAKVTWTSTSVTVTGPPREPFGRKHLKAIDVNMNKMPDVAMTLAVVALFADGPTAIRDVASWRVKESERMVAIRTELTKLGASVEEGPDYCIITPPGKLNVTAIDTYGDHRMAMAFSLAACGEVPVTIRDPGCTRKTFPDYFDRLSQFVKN
As to the kind of experiment: Substrate saturation kinetic analysis with glyphosate, H6-K246G.

T1 sequence (O24566 entry or part of it P106L): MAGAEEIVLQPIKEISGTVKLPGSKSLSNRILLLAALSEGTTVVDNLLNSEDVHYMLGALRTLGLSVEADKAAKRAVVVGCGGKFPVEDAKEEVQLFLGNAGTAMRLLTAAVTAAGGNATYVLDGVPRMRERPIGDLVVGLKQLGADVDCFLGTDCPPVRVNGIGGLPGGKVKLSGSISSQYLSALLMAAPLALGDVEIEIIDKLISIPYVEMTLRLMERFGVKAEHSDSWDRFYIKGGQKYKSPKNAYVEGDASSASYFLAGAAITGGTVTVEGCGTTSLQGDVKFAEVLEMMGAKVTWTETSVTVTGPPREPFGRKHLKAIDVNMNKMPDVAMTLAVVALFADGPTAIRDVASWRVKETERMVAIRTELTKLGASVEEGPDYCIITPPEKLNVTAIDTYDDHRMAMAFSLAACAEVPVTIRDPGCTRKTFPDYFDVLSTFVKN
Chain of Oryza sativa EPSPS with 868-H6 mutations, SEQ ID NO:11 (Q93VK6 64-511 with the stated changes): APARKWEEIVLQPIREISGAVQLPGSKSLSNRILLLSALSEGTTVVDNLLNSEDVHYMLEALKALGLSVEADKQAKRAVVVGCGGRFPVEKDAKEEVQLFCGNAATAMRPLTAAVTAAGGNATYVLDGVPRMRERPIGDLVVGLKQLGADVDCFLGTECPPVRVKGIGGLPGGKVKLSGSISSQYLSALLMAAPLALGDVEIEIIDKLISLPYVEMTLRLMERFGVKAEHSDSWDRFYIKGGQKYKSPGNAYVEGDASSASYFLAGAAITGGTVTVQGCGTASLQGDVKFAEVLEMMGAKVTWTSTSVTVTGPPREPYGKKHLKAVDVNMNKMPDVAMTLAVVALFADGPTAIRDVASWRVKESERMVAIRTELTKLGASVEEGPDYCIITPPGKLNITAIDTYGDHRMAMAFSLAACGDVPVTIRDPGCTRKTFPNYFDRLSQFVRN

For orientation: Ki means the dissociation constant of the complex between target and ligand, obtained from inhibition or displacement. For the compound `O=C(O)CNCP(=O)(O)O` [glyphosate, N-phosphonomethylglycine], the Ki in test [1] turned out to be 907 µM; in test [3] it was 284 µM. For the same compound, the “(kcat/KM)*KI” value in test [1] (PEP as substrate, glyphosate as inhibitor) was found to be 9200; in test [2] (rapid method repeated, [E] 0.014 uM, [Gly] 10 uM), 91; in test [2] (rapid method, [E] 0.07 uM, [Gly] 1000 uM) it was 111; in test [3] (substrate saturation, H6-K246G), 2490.

(Values after patent US11549123B2, “Plant EPSP synthases and methods of use” (PIONEER HI-BRED INTERNATIONAL, INC., priority 2015, dated 2023).)
